How the values were obtained:
LBP-2 = target: T1, LBP-2 (Caenorhabditis elegans, UniProt Q20224); experiment: mass spectrometry of fatty acids bound after incubation with C. elegans lipid extract; type: binding; details: competition within C. elegans lipid extract
T1 sequence (Q20224 19-161): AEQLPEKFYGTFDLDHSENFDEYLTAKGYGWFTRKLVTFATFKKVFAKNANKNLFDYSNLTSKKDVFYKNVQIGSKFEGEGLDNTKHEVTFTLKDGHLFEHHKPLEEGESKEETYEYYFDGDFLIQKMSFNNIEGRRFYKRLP

LBP-3 = target: T2, LBP-3 (Caenorhabditis elegans, UniProt Q20222); experiment: competitive fluorescence displacement of […],8-ANS; type: binding; details: one-site Fit Ki; competition with 1,8-ANS probe
T2 sequence (Q20222 16-165): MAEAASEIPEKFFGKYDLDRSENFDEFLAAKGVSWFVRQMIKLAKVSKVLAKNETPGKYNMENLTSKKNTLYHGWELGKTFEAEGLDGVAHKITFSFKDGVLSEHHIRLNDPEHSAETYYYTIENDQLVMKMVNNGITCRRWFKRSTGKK

% occupancy among bound PUFAs (LBP-2)	Kd (LBP-3)	Compound
1%	11 µM	CCCCC/C=C\C/C=C\C/C=C\CCCCCCC(=O)O [DGLA, dihomo-γ-linolenic acid]
6%	4.76 µM	CC/C=C\C/C=C\C/C=C\C/C=C\C/C=C\CCCC(=O)O [EPA, eicosapentaenoic acid]
